Experiment: Complete blood count (CBC) evaluation in mice
Type: in vivo, male Swiss Albino mouse
Conditions: mouse, 48 h after dosing
Protocol: The pharmacokinetics of 1H-indole-3-carbaldehyde quinolin-8-ylhydrazone (Compound C3) was evaluated following intravenous (3 mg/kg) and oral (15 mg/kg) solution administration of 1H-indole-3-carbaldehyde quinolin-8-ylhydrazone in male Swiss Albino mouse. The effect of the Test Item, 1H-indole-3-carbaldehyde quinolin-8-ylhydrazone on complete blood count (CBC) was also evaluated. Pharmacokinetic phase consisted of two groups, Group 1 and Group 2. Animals in Group 1 were given intravenous bolus dose in a vehicle containing 5% N,N-dimethylacetamide, 5% CREMOPHOR™ EL and 90% Dextrose solution (5% w/v) and those in Group 2 were given oral solution dose in a vehicle, the composition of which was same as that of intravenous formulation. In addition, the effect of Test Item on complete blood count was evaluated following intravenous and oral dose administration along with its vehicle controls. A total of four groups were used each with 6 mice.
From the pharmacokinetic group, predose samples were collected from 3 animals in each group. Following dose administration terminal blood samples were collected at each of the following time points (in triplicate): 0.083 (only for intravenous), 0.25, 0.5, 1, 2, 4, 8, 12 and 24 hours. At each time point, approximately 500 μL of whole blood was withdrawn from the retro orbital sinus and collected in labeled tubes containing dipotassium EDTA as anticoagulant (20 μL of 200 mM K2 EDTA solution per mL of blood). Plasma was separated by centrifuging the whole blood at about 2500 g for 10 minutes at 4° C. within 1 h of sample collection. Separated plasma was stored below minus 50° C. until bioanalysis. A sensitive LC-MS/MS method was used for the quantitation of 1H-indole-3-carbaldehyde quinolin-8-ylhydrazone. The lower limit of quantitation was 1.04 ng/mL. For CBC evaluation, approximately 500 μL of blood was collected in labeled tubes containing dipotassium EDTA as anticoagulant (10 […]/mL of blood) after 48 h of dose administration from all animals.
A total of 24 mice were divided in to four groups as follows: […]

In the case of `C(=NNc1cccc2cccnc12)c1c[nH]c2ccccc12` [Compound C3, 1H-indole-3-carbaldehyde quinolin-8-ylhydrazone], the “Other hematological parameters vs vehicle control” value (intravenous 3 mg/kg and oral 15 mg/kg) is reported as “no effect”, the “White blood cell count vs vehicle control” value (intravenous 3 mg/kg) is reported as “lower” and the “Platelet count vs vehicle control” value (oral 15 mg/kg) is reported as “lower”.

Source: patent US8039505B2, “Compounds for modulating T-cells” (University of Utah Research Foundation, priority 2007, dated 2011)
